{"source": "paper PMC5684552", "about": "(Evidence-based Complementary and Alternative Medicine : eCAM, 2017)", "key": {"[1]": {"molecular_target": "human TRPV1 receptor channel (Homo sapiens, UniProt Q8NER1)", "sequence (Q8NER1 whole entry)": "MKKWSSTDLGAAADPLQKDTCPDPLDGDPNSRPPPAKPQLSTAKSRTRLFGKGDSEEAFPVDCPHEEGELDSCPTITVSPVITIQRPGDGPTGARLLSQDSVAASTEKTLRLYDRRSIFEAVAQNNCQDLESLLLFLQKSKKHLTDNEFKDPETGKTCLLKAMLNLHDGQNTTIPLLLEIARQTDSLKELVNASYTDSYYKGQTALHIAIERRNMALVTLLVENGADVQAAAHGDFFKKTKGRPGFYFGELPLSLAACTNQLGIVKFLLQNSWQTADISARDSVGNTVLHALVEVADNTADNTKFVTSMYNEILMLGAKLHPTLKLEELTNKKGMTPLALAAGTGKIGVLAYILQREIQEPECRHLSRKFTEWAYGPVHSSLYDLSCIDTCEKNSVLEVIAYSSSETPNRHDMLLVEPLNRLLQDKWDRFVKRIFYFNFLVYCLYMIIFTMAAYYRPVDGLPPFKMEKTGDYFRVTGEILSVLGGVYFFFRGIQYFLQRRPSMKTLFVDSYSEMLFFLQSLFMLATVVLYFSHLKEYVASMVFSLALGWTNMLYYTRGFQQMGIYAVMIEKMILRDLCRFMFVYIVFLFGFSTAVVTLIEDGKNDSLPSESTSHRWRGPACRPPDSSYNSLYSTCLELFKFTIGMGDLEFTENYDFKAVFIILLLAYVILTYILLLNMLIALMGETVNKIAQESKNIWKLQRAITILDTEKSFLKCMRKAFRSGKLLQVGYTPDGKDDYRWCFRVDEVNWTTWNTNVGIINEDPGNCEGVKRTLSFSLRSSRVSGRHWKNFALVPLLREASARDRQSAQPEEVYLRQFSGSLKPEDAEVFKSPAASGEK", "test": "Two-electrode voltage clamp of capsaicin-induced current in Xenopus oocytes expressing wild type human TRPV1", "format": "cell-based", "details": "for inhibition of capsaicin-induced current: 100 μM gomisin A plus 1 μM capsaicin, voltage ramp"}, "control oocytes": {"system": "control oocytes", "test": "Two-electrode voltage clamp of control oocytes injected with H2O", "format": "cell-based, X. laevis", "details": "for inward peak current in control oocytes: oocytes injected with 40 nl H2O"}, "TRPV1 A452Y mutant": {"molecular_target": "TRPV1 A452Y mutant (Homo sapiens, UniProt Q8NER1, A453Y)", "sequence (Q8NER1 whole entry A453Y)": "as the sequence (Q8NER1 whole entry) above, with A453Y counted along it", "format": "cell-based", "details": "holding potential −80 mV"}, "TRPV1 Y453A mutant": {"molecular_target": "TRPV1 Y453A mutant (Homo sapiens, UniProt Q8NER1, Y454A, species not given)", "sequence (Q8NER1 whole entry Y454A)": "as the sequence (Q8NER1 whole entry) above, with Y454A counted along it", "format": "cell-based", "details": "holding potential −80 mV"}, "TRPV1 Y454A mutant": {"molecular_target": "TRPV1 Y454A mutant (Homo sapiens, UniProt Q8NER1, Y455A)", "sequence (Q8NER1 whole entry Y455A)": "as the sequence (Q8NER1 whole entry) above, with Y455A counted along it", "format": "cell-based", "details": "holding potential −80 mV"}, "TRPV1 R455A mutant": {"molecular_target": "TRPV1 R455A mutant (Homo sapiens, UniProt Q8NER1, R456A, species not given)", "sequence (Q8NER1 whole entry R456A)": "as the sequence (Q8NER1 whole entry) above, with R456A counted along it", "format": "cell-based", "details": "holding potential −80 mV"}, "TRPV1 V456A mutant": {"molecular_target": "TRPV1 V456A mutant (Homo sapiens, UniProt Q8NER1, V456A, species not given)", "sequence (Q8NER1 1-837 isoform Q8NER1-3 V456A)": "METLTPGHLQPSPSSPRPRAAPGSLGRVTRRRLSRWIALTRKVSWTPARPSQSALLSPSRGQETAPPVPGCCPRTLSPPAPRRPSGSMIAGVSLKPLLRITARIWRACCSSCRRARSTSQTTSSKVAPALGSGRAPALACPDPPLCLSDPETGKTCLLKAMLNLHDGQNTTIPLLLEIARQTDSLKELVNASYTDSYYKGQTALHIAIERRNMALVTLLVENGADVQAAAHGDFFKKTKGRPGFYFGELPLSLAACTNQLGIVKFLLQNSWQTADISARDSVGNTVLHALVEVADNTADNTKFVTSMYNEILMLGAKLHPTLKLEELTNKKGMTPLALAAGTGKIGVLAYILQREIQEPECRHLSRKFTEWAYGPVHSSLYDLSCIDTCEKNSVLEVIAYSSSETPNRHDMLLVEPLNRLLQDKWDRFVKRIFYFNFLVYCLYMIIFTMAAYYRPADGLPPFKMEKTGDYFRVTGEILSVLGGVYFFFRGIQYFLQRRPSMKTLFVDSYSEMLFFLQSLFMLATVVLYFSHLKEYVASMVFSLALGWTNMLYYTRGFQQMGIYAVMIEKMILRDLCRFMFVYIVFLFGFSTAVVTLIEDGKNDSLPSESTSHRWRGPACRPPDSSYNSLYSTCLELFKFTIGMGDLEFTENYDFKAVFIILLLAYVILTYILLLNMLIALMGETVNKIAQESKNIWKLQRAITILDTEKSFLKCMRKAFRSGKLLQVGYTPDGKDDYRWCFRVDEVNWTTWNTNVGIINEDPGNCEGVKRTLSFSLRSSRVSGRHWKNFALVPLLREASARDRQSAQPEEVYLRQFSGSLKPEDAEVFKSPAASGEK", "format": "cell-based", "details": "holding potential −80 mV"}, "TRPV1 L465A mutant": {"molecular_target": "TRPV1 L465A mutant (Homo sapiens, UniProt Q8NER1, form not given, species not given)", "sequence (Q8NER1 whole entry, stated change not applied)": "as the sequence (Q8NER1 whole entry) above", "format": "cell-based", "details": "holding potential −80 mV"}, "TRPV1 K466A mutant": {"molecular_target": "TRPV1 K466A mutant (Homo sapiens, UniProt Q8NER1, form not given, species not given)", "sequence (Q8NER1 1-837 isoform Q8NER1-3, stated change not applied)": "as the sequence (Q8NER1 1-837 isoform Q8NER1-3 V456A) above, with A456V counted along it", "format": "cell-based", "details": "holding potential −80 mV"}, "TRPV1 N467A mutant": {"molecular_target": "TRPV1 N467A mutant (Homo sapiens, UniProt Q8NER1, form not given, species not given)", "sequence (Q8NER1 whole entry, stated change not applied)": "as the sequence (Q8NER1 whole entry) above", "format": "cell-based", "details": "holding potential −80 mV"}, "TRPV1 T468A mutant": {"molecular_target": "TRPV1 T468A mutant (Homo sapiens, UniProt Q8NER1, T469A, species not given)", "sequence (Q8NER1 whole entry T469A)": "as the sequence (Q8NER1 whole entry) above, with T469A counted along it", "format": "cell-based", "details": "holding potential −80 mV"}, "TRPV1 V469A mutant": {"molecular_target": "TRPV1 V469A mutant (Homo sapiens, UniProt Q8NER1, form not given, species not given)", "sequence (Q8NER1 whole entry, stated change not applied)": "as the sequence (Q8NER1 whole entry) above", "format": "cell-based", "details": "holding potential −80 mV"}, "TRPV1 YNA2 double mutant": {"molecular_target": "TRPV1 YNA2 double mutant (Homo sapiens, UniProt Q8NER1, Y454A, form not given, species not given)", "sequence (Q8NER1 whole entry Y454A, form open)": "as the sequence (Q8NER1 whole entry) above, with Y454A counted along it", "format": "cell-based", "details": "holding potential −80 mV"}}, "data": [{"molecule": "COc1cc(CNC(=O)CCCC/C=C/C(C)C)ccc1O", "note": "[capsaicin, reference compound]", "values": [{"measurement": "reversal membrane voltage potential of capsaicin-induced inward current", "setting": "[1]; 1 μM capsaicin, ramp −100 to +80 mV", "result": "~−10", "unit": "mV"}, {"measurement": "effect of agonist on current", "setting": "[1]; 1 μM, holding potential −80 mV", "result": "stimulated an inward current"}, {"measurement": "inward peak current in control oocytes", "setting": "control oocytes; 1 μM", "result": "did not result in any inward peak current"}]}, {"molecule": "Oc1cc2c(cc1O)CN(C(=S)NCCc1ccc(Cl)cc1)CCC2", "note": "[capsazepine, reference compound]", "values": [{"measurement": "effect of antagonist on capsaicin-stimulated inward current", "setting": "[1]; 10 μM capsazepine cotreated with 1 μM capsaicin", "result": "blocked the capsaicin-stimulated inward current"}, {"measurement": "inhibition at 10 µM", "setting": "[1]; 10 μM capsazepine cotreated with 1 μM capsaicin, −80 mV, read-out: percent inhibition of capsaicin-induced inward current", "result": "79.5 ± 4.5", "unit": "%"}]}, {"molecule": "gomisin A", "values": [{"measurement": "effect of compound alone on currents of human TRPV1 receptor", "setting": "[1]; 100 μM alone, holding potential −80 mV", "result": "had no effect"}, {"measurement": "percent inhibition of capsaicin-induced inward current", "setting": "[1]; 100 μM gomisin A coapplied with 1 μM capsaicin, −80 mV", "result": "46.5 ± 4.5", "unit": "%"}, {"measurement": "inhibition of capsaicin-induced current", "setting": "[1]; at +80 mV", "result": "42.6 ± 11.2", "unit": "%"}, {"measurement": "inhibition of capsaicin-induced current", "setting": "[1]; at −100 mV", "result": "71.1 ± 16.2", "unit": "%"}, {"measurement": "Vmax", "setting": "[1]; […], inhibition of capsaicin-induced current, holding potential −80 mV", "result": "72.9 ± 1.0"}, {"measurement": "manner of attenuation of capsaicin-elicited inward peak currents", "setting": "[1]; cotreatment with capsaicin", "result": "reversible, voltage insensitive, concentration dependent, and noncompetitive"}, {"measurement": "percent inhibition of capsaicin-induced inward current", "setting": "[1]; preapplication of gomisin A, 1 μM capsaicin", "result": "48.2 ± 7.2", "unit": "%"}, {"measurement": "Vmax", "setting": "TRPV1 A452Y mutant", "result": "79.2 ± 3.1"}, {"measurement": "n (Hill coefficient)", "setting": "TRPV1 A452Y mutant", "result": "2.2 ± 0.8"}, {"measurement": "Vmax", "setting": "TRPV1 Y453A mutant", "result": "38.3 ± 2.4"}, {"measurement": "n (Hill coefficient)", "setting": "TRPV1 Y453A mutant", "result": "1.2 ± 0.5"}, {"measurement": "Vmax", "setting": "TRPV1 Y454A mutant", "result": "59.2 ± 3.0"}, {"measurement": "n (Hill coefficient)", "setting": "TRPV1 Y454A mutant", "result": "2.2 ± 0.8"}, {"measurement": "Vmax", "setting": "TRPV1 R455A mutant", "result": "64.4 ± 2.6"}, {"measurement": "n (Hill coefficient)", "setting": "TRPV1 R455A mutant", "result": "1.7 ± 0.6"}, {"measurement": "Vmax", "setting": "TRPV1 V456A mutant", "result": "91.5 ± 2.6"}, {"measurement": "n (Hill coefficient)", "setting": "TRPV1 V456A mutant", "result": "1.8 ± 0.8"}, {"measurement": "Vmax", "setting": "TRPV1 L465A mutant", "result": "68.3 ± 3.5"}, {"measurement": "n (Hill coefficient)", "setting": "TRPV1 L465A mutant", "result": "1.8 ± 0.3"}, {"measurement": "Vmax", "setting": "TRPV1 K466A mutant", "result": "64.7 ± 2.1"}, {"measurement": "n (Hill coefficient)", "setting": "TRPV1 K466A mutant", "result": "2.3 ± 0.5"}, {"measurement": "Vmax", "setting": "TRPV1 N467A mutant", "result": "24.7 ± 2.0"}, {"measurement": "n (Hill coefficient)", "setting": "TRPV1 N467A mutant", "result": "1.3 ± 0.5"}, {"measurement": "Vmax", "setting": "TRPV1 T468A mutant", "result": "67.9 ± 1.5"}, {"measurement": "n (Hill coefficient)", "setting": "TRPV1 T468A mutant", "result": "1.6 ± 0.5"}, {"measurement": "Vmax", "setting": "TRPV1 V469A mutant", "result": "72.5 ± 5.6"}, {"measurement": "n (Hill coefficient)", "setting": "TRPV1 V469A mutant", "result": "2.1 ± 0.7"}, {"measurement": "Vmax", "setting": "TRPV1 YNA2 double mutant", "result": "17.9 ± 6.5"}, {"measurement": "inward current in control oocytes on coapplication", "setting": "control oocytes; 10 μM gomisin A coapplied with 1 μM capsaicin, H2O-injected oocytes", "result": "did not result in an inward current"}, {"measurement": "inward peak current in control oocytes", "setting": "control oocytes; 10 μM", "result": "did not result in any inward peak current"}]}]}
